Test results taken from publication PMC6777076 (ACS Omega, 2019).

Target: T1, uridine nucleoside ribohydrolase (UNH) (Trichomonas vaginalis, UniProt A2FTT0)
T1 sequence (A2FTT0 1-347): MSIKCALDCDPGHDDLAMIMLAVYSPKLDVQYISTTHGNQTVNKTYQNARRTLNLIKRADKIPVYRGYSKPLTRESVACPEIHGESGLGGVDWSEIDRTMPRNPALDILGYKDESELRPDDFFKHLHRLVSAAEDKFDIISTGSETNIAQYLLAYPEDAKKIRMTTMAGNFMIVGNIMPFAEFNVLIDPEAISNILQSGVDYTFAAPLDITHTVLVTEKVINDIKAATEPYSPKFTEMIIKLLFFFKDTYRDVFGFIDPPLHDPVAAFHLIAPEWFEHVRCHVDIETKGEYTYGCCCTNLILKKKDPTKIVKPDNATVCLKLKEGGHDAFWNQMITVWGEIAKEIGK
Assay: 19F NMR-based activity assay
Assay type: biochemical
Conditions: from UNH potency and heavy atom count

Structure (SMILES)	LE (ligand efficiency)
CSc1nc2ccccc2[nH]1 [2-methylthiobenzimidazole]	0.53
COc1ccc2[nH]c([S+]([O-])Cc3ncc(C)c(OC)c3C)nc2c1 (centres unmarked) [omeprazole]	0.36
